≈ marks a conversion by molar mass, not a printed value.
Test system: Histophilus somni
Assay: minimum inhibitory concentration (MIC)
Procedure: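 Broth microdilution MIC (Sensititre BOPO7F bovine plate, CLSI methods) of 19 antimicrobials against field isolates of P. multocida, M. haemolytica, H. somni (deep nasopharyngeal swabs) and E. coli, Enterococcus spp. (rectal swabs) from weaned dairy heifers. Incubation 16-24 h at 35 C. MIC is the lowest concentration preventing visible growth. Values with <= or > lie at the tested range limits. Trimethoprim-sulfamethoxazole is given as the trimethoprim component of a 1:19 mixture.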

CC[C@H]1OC(=O)C[C@@H](O)[C@H](C)[C@@H](O[C@@H]2O[C@H](C)[C@@H](O)[C@H](N(C)C)[C@H]2O)[C@@H](CCN2CCCCC2)C[C@@H](C)C(=O)/C=C/C(C)=C/[C@@H]1CN1CCCCC1 [Tildipirosin]
Conditions	minimum inhibitory concentration [µg/mL]
isolate (source animal id): 3	≤ 1
isolate (source animal id): 4	2 (≈ 2.72 µM)
isolate (source animal id): 7	≤ 1
isolate (source animal id): 14	≤ 1
isolate (source animal id): 15	4 (≈ 5.45 µM)
isolate (source animal id): 17	≤ 1
isolate (source animal id): 18	≤ 1
isolate (source animal id): 20	≤ 1
isolate (source animal id): 23	2 (≈ 2.72 µM)
isolate (source animal id): 45	4 (≈ 5.45 µM)
isolate (source animal id): 53	4 (≈ 5.45 µM)
isolate (source animal id): 83	2 (≈ 2.72 µM)
isolate (source animal id): 88	2 (≈ 2.72 µM)
isolate (source animal id): 92	4 (≈ 5.45 µM)
isolate (source animal id): 93	≤ 1
isolate (source animal id): 99	2 (≈ 2.72 µM)
isolate (source animal id): 100	4 (≈ 5.45 µM)
isolate (source animal id): 105	≤ 1
isolate (source animal id): 107	2 (≈ 2.72 µM)
isolate (source animal id): 108	4 (≈ 5.45 µM)
isolate (source animal id): 109	4 (≈ 5.45 µM)
isolate (source animal id): 110	4 (≈ 5.45 µM)
isolate (source animal id): 117	≤ 1
isolate (source animal id): 121	≤ 1
isolate (source animal id): 123	2 (≈ 2.72 µM)
isolate (source animal id): 124	2 (≈ 2.72 µM)
isolate (source animal id): 127	≤ 1
isolate (source animal id): 128	2 (≈ 2.72 µM)
isolate (source animal id): 130	2 (≈ 2.72 µM)
isolate (source animal id): 132	4 (≈ 5.45 µM)
isolate (source animal id): 135	2 (≈ 2.72 µM)
isolate (source animal id): 140	2 (≈ 2.72 µM)
isolate (source animal id): 141	2 (≈ 2.72 µM)
isolate (source animal id): 142	> 16
isolate (source animal id): 144	4 (≈ 5.45 µM)
isolate (source animal id): 146	4 (≈ 5.45 µM)
isolate (source animal id): 147	> 16
isolate (source animal id): 151	2 (≈ 2.72 µM)
isolate (source animal id): 153	8 (≈ 10.9 µM)
isolate (source animal id): 154	> 16
isolate (source animal id): 156	> 16
isolate (source animal id): 157	8 (≈ 10.9 µM)
isolate (source animal id): 176	2 (≈ 2.72 µM)
isolate (source animal id): 183	2 (≈ 2.72 µM)
isolate (source animal id): 186	4 (≈ 5.45 µM)
isolate (source animal id): 196	4 (≈ 5.45 µM)
isolate (source animal id): 198	4 (≈ 5.45 µM)
isolate (source animal id): 200	8 (≈ 10.9 µM)
isolate (source animal id): 206	8 (≈ 10.9 µM)
isolate (source animal id): 208	8 (≈ 10.9 µM)
isolate (source animal id): 210	2 (≈ 2.72 µM)
isolate (source animal id): 212	≤ 1
isolate (source animal id): 215	4 (≈ 5.45 µM)
isolate (source animal id): 216	8 (≈ 10.9 µM)
isolate (source animal id): 218	4 (≈ 5.45 µM)
isolate (source animal id): 219	8 (≈ 10.9 µM)
isolate (source animal id): 224	8 (≈ 10.9 µM)
isolate (source animal id): 228	4 (≈ 5.45 µM)
isolate (source animal id): 230	≤ 1
isolate (source animal id): 233	≤ 1
isolate (source animal id): 238	≤ 1
isolate (source animal id): 239	2 (≈ 2.72 µM)
isolate (source animal id): 241	2 (≈ 2.72 µM)
isolate (source animal id): 242	2 (≈ 2.72 µM)
isolate (source animal id): 243	≤ 1
isolate (source animal id): 245	≤ 1
isolate (source animal id): 246	4 (≈ 5.45 µM)
isolate (source animal id): 247	2 (≈ 2.72 µM)
isolate (source animal id): 248	≤ 1
isolate (source animal id): 250	2 (≈ 2.72 µM)
isolate (source animal id): 251	4 (≈ 5.45 µM)
isolate (source animal id): 252	4 (≈ 5.45 µM)
isolate (source animal id): 254	4 (≈ 5.45 µM)
isolate (source animal id): 258	2 (≈ 2.72 µM)
isolate (source animal id): 259	2 (≈ 2.72 µM)
isolate (source animal id): 262	≤ 1
isolate (source animal id): 264	≤ 1
isolate (source animal id): 265	2 (≈ 2.72 µM)
isolate (source animal id): 266	2 (≈ 2.72 µM)
isolate (source animal id): 267	2 (≈ 2.72 µM)
isolate (source animal id): 269	2 (≈ 2.72 µM)
isolate (source animal id): 271	2 (≈ 2.72 µM)
isolate (source animal id): 272	≤ 1
isolate (source animal id): 274	≤ 1
isolate (source animal id): 276	≤ 1
isolate (source animal id): 278	2 (≈ 2.72 µM)
isolate (source animal id): 280	≤ 1
isolate (source animal id): 281	4 (≈ 5.45 µM)
isolate (source animal id): 283	2 (≈ 2.72 µM)
isolate (source animal id): 288	4 (≈ 5.45 µM)
isolate (source animal id): 291	2 (≈ 2.72 µM)
isolate (source animal id): 292	4 (≈ 5.45 µM)
isolate (source animal id): 296	2 (≈ 2.72 µM)
isolate (source animal id): 306	8 (≈ 10.9 µM)
isolate (source animal id): 336	8 (≈ 10.9 µM)
isolate (source animal id): 337	8 (≈ 10.9 µM)
isolate (source animal id): 341	4 (≈ 5.45 µM)

Source: the supplement of paper PMC8612539
